Source: ChEMBL document CHEMBL3600292, “Anti-HIV screening for cell-penetrating peptides using chloroquine and identification of anti-HIV peptides derived from matrix proteins” (Bioorg Med Chem, 2015)
Starred links: 1 amine or outer side, 2 acyl side, 3 side chain; linkers in the order of their positions; H or OH if unused. Positions of bridges follow the written chain, without caps; N, C: chain ends. Non-standard residues stand in square brackets, D forms with d. Residues, ends and D or L forms follow the SMILES beside them. Chains are numbered I, II in the order given. Orn = NCCC[C@H](N)C(=O)O; X1 = O=C(C[*:1])[*:2]

Tests used:
[1] = Cytotoxicity against human MT4 cells by MTT assay in presence of 5 uM of chloroquine; format: cell-based
[2] = tested on: Human immunodeficiency virus 1; test: Antiviral activity against T-cell line-tropic HIV1 NL4-3 infected in human MT4 cells assessed as inhibition of virus-induced cytopathogenicity after 5 days by MTT assay in presence of 5 uM of chloroquine; format: functional, organism-based; details: Human immunodeficiency virus 1, NL4-3, MT4, 120 h
[3] = Cytotoxicity against human PM1 cells expressing CCR5 by MTT assay in presence of 5 uM of chloroquine; format: cell-based
[4] = tested on: Human immunodeficiency virus 1; test: Antiviral activity against T-cell line-tropic HIV1 NL4-3 infected in human MT4 cells assessed as inhibition of virus-induced cytopathogenicity after 5 days by MTT assay; format: functional, organism-based; details: Human immunodeficiency virus 1, NL4-3, MT4, 120 h
[5] = Cytotoxicity against human MT4 cells by MTT assay; format: cell-based
[6] = tested on: Human immunodeficiency virus 1; test: Antiviral activity against macrophage-tropic HIV1 NL(AD8) infected in human PM1 expressing CCR5 cells assessed as inhibition of virus-induced cytopathogenicity after 5 days by MTT assay in presence of 5 uM of chloroquine; format: functional, organism-based; details: Human immunodeficiency virus 1, NL(AD8), PM1/CCR5, 120 h

SMILES | CC50 [1] [µM] | EC50 [2] [µM] | CC50 [3] [µM] | EC50 [4] [µM] | CC50 [5] [µM] | EC50 [6] [µM]
CC[C@H](C)[C@H](NC(=O)[C@H](CCCNC(=N)N)NC(=O)[C@H](CCC(N)=O)NC(=O)[C@H](Cc1c[nH]cn1)NC(=O)[C@@H](NC(=O)[C@H](CO)NC(=O)[C@H](Cc1ccc(O)cc1)NC(=O)[C@H](CC(C)C)NC(=O)[C@@H](NC(=O)[C@H](C)NC(=O)[C@@H](NC(=O)[C@@H](NC(=O)[C@H](CC(N)=O)NC(C)=O)[C@@H](C)O)[C@@H](C)CC)C(C)C)C(C)C)C(=O)N[C@@H](CC(=O)O)C(=O)N[C@H](C(=O)NCC(=O)N[C@@H](CSCC(=O)N[C@@H](CCCNC(=N)N)C(=O)N[C@@H](CCCN)C(=O)N[C@@H](CCCNC(=N)N)C(=O)N[C@@H](CCCN)C(=O)N[C@@H](CCCNC(=N)N)C(=O)N[C@@H](CCCN)C(=O)N[C@@H](CCCNC(=N)N)C(=O)N[C@@H](CCCN)C(N)=O)C(=O)O)C(C)C (I: Ac-NTIAVLYSVHQRIDVGC-OH / II: R[Orn]R[Orn]R[Orn]R[Orn]-NH2; linker I:17-II:N via X1) | 18 | 2 | 17 | > 18 | 18 | 5.6
COC[C@@H](c1ccc(C(F)(F)F)cc1)N1CCN(C2(C)CCN(C(=O)c3c(C)ncnc3C)CC2)C[C@@H]1C [VICRIVIROC] | > 5 | > 5 | > 5 | > 5 | > 5 | 0.0049
CC[C@H](C)[C@H](NC(=O)[C@H](CCCNC(=N)N)NC(=O)[C@H](CCC(N)=O)NC(=O)[C@H](Cc1c[nH]cn1)NC(=O)[C@@H](NC(=O)[C@H](CO)NC(=O)[C@H](Cc1ccc(O)cc1)NC(=O)[C@H](CC(C)C)NC(=O)[C@@H](NC(=O)[C@H](C)NC(=O)[C@@H](NC(=O)[C@@H](NC(=O)[C@H](CC(N)=O)NC(=O)[C@H](Cc1ccc(O)cc1)NC(=O)[C@H](CC(C)C)NC(C)=O)[C@@H](C)O)[C@@H](C)CC)C(C)C)C(C)C)C(=O)NCC(=O)N[C@@H](CSCC(=O)N[C@@H](CCCNC(=N)N)C(=O)N[C@@H](CCCN)C(=O)N[C@@H](CCCNC(=N)N)C(=O)N[C@@H](CCCN)C(=O)N[C@@H](CCCNC(=N)N)C(=O)N[C@@H](CCCN)C(=O)N[C@@H](CCCNC(=N)N)C(=O)N[C@@H](CCCN)C(N)=O)C(N)=O (I: Ac-LYNTIAVLYSVHQRIGC-NH2 / II: R[Orn]R[Orn]R[Orn]R[Orn]-NH2; linker I:17-II:N via X1) | 12 | 0.64 | 8.7 | 6.3 | 11 | 2.8
CC[C@H](C)[C@H](NC(=O)[C@H](CCCNC(=N)N)NC(=O)[C@H](CCC(N)=O)NC(=O)[C@H](Cc1c[nH]cn1)NC(=O)[C@@H](NC(=O)[C@H](CO)NC(=O)[C@H](Cc1ccc(O)cc1)NC(=O)[C@H](CC(C)C)NC(=O)[C@@H](NC(=O)[C@H](C)NC(=O)[C@@H](NC(=O)[C@@H](NC(=O)[C@H](CC(N)=O)NC(=O)[C@H](Cc1ccc(O)cc1)NC(C)=O)[C@@H](C)O)[C@@H](C)CC)C(C)C)C(C)C)C(=O)N[C@@H](CC(=O)O)C(=O)NCC(=O)N[C@@H](CSCC(=O)N[C@@H](CCCNC(=N)N)C(=O)N[C@@H](CCCN)C(=O)N[C@@H](CCCNC(=N)N)C(=O)N[C@@H](CCCN)C(=O)N[C@@H](CCCNC(=N)N)C(=O)N[C@@H](CCCN)C(=O)N[C@@H](CCCNC(=N)N)C(=O)N[C@@H](CCCN)C(N)=O)C(N)=O (I: Ac-YNTIAVLYSVHQRIDGC-NH2 / II: R[Orn]R[Orn]R[Orn]R[Orn]-NH2; linker I:17-II:N via X1) | 7.7 | 1.7 | 7.6 | > 7 | 7 | 1.4
